# Assay results as given in article PMC6891286, “Towards the Development of an In vivo Chemical Probe for Cyclin G Associated Kinase (GAK)” (Molecules, 2019).
# Experiments:
# Assay in all cases: KINOMEscan
# Assay type in all cases: binding
# Details in all cases: 35 at 1 µM; read-out: % inhibition
# [1] = molecular target: T1, ABL1(Q252H)-phosphorylated (Homo sapiens, UniProt P00519, Q252H)
# T1 construct: purchased Eurofins DiscoverX (KINOMEscan)
# Procedure: (§1) KinomeScan Assay on 35 was performed as previously described at EuroFins DiscoverX (Fremont, CA, USA).
# [2] = molecular target: T2, ABL1(Y253F)-phosphorylated (Homo sapiens, UniProt P00519, Y253F)
# T2 construct: purchased Eurofins DiscoverX (KINOMEscan)
# Procedure: as §1
# AKT2 = molecular target: T3, AKT2 (Homo sapiens, UniProt P31751)
# T3 construct: purchased Eurofins DiscoverX (KINOMEscan)
# Procedure: as §1
# BLK = molecular target: T4, BLK (Homo sapiens, UniProt P51451)
# T4 construct: purchased Eurofins DiscoverX (KINOMEscan)
# Procedure: as §1
# CAMK2G = molecular target: T5, CAMK2G (Homo sapiens, UniProt Q13555)
# T5 construct: purchased Eurofins DiscoverX (KINOMEscan)
# Procedure: as §1
# CDK11 = molecular target: T6, CDK11 (Homo sapiens, UniProt Q9BWU1)
# T6 construct: purchased Eurofins DiscoverX (KINOMEscan)
# Procedure: as §1
# CDK4-cyclinD3 = molecular target: T7, CDK4-cyclinD3 (Homo sapiens, UniProt P11802)
# T7 construct: purchased Eurofins DiscoverX (KINOMEscan)
# Procedure: as §1
# CDK7 = molecular target: T8, CDK7 (Homo sapiens, UniProt P50613)
# T8 construct: purchased Eurofins DiscoverX (KINOMEscan)
# Procedure: as §1
# CDK8 = molecular target: T9, CDK8 (Homo sapiens, UniProt P49336)
# T9 construct: purchased Eurofins DiscoverX (KINOMEscan)
# Procedure: as §1
# CLK1 = molecular target: T10, CLK1 (Homo sapiens, UniProt P49759)
# T10 construct: purchased Eurofins DiscoverX (KINOMEscan)
# Procedure: as §1
# DMPK2 = molecular target: T11, DMPK2 (Homo sapiens, UniProt Q6DT37)
# T11 construct: purchased Eurofins DiscoverX (KINOMEscan)
# Procedure: as §1
# ERBB2 = molecular target: T12, ERBB2 (Homo sapiens, UniProt P04626)
# T12 construct: purchased Eurofins DiscoverX (KINOMEscan)
# Procedure: as §1
# ERBB4 = molecular target: T13, ERBB4 (Homo sapiens, UniProt Q15303)
# T13 construct: purchased Eurofins DiscoverX (KINOMEscan)
# Procedure: as §1
# ERK3 = molecular target: T14, ERK3 (Homo sapiens, UniProt Q16659)
# T14 construct: purchased Eurofins DiscoverX (KINOMEscan)
# Procedure: as §1
# FLT1 = molecular target: T15, FLT1 (Homo sapiens, UniProt P17948)
# T15 construct: purchased Eurofins DiscoverX (KINOMEscan)
# Procedure: as §1
# HUNK = molecular target: T16, HUNK (Homo sapiens, UniProt P57058)
# T16 construct: purchased Eurofins DiscoverX (KINOMEscan)
# Procedure: as §1
# IKK-beta = molecular target: T17, IKK-beta (Homo sapiens, UniProt O14920)
# T17 construct: purchased Eurofins DiscoverX (KINOMEscan)
# Procedure: as §1
# IKK-epsilon = molecular target: T18, IKK-epsilon (Homo sapiens, UniProt Q14164)
# T18 construct: purchased Eurofins DiscoverX (KINOMEscan)
# Procedure: as §1
# JNK1 = molecular target: T19, JNK1 (Homo sapiens, UniProt P45983)
# T19 construct: purchased Eurofins DiscoverX (KINOMEscan)
# Procedure: as §1
# JNK2 = molecular target: T20, JNK2 (Homo sapiens, UniProt P45984)
# T20 construct: purchased Eurofins DiscoverX (KINOMEscan)
# Procedure: as §1
# KIT(D816V) = molecular target: T21, KIT(D816V) (Homo sapiens, UniProt P10721, D816V)
# T21 construct: purchased Eurofins DiscoverX (KINOMEscan)
# Procedure: as §1
# LCK = molecular target: T22, LCK (Homo sapiens, UniProt P06239)
# T22 construct: purchased Eurofins DiscoverX (KINOMEscan)
# Procedure: as §1
# MARK1 = molecular target: T23, MARK1 (Homo sapiens, UniProt Q9P0L2)
# T23 construct: purchased Eurofins DiscoverX (KINOMEscan)
# Procedure: as §1
# MARK2 = molecular target: T24, MARK2 (Homo sapiens, UniProt Q7KZI7)
# T24 construct: purchased Eurofins DiscoverX (KINOMEscan)
# Procedure: as §1
# MEK1 = molecular target: T25, MEK1 (Homo sapiens, UniProt Q02750)
# T25 construct: purchased Eurofins DiscoverX (KINOMEscan)
# Procedure: as §1
# MEK2 = molecular target: T26, MEK2 (Homo sapiens, UniProt P36507)
# T26 construct: purchased Eurofins DiscoverX (KINOMEscan)
# Procedure: as §1
# MRCKA = molecular target: T27, MRCKA (Homo sapiens, UniProt Q5VT25)
# T27 construct: purchased Eurofins DiscoverX (KINOMEscan)
# Procedure: as §1
# MTOR = molecular target: T28, MTOR (Homo sapiens, UniProt P42345)
# T28 construct: purchased Eurofins DiscoverX (KINOMEscan)
# Procedure: as §1
# NEK10 = molecular target: T29, NEK10 (Homo sapiens, UniProt Q6ZWH5)
# T29 construct: purchased Eurofins DiscoverX (KINOMEscan)
# Procedure: as §1
# PIK3CA(E545K) = molecular target: T30, PIK3CA(E545K) (Homo sapiens, UniProt P42336, E545K)
# T30 construct: purchased Eurofins DiscoverX (KINOMEscan)
# Procedure: as §1
# PIK3CA(I800L) = molecular target: T31, PIK3CA(I800L) (Homo sapiens, UniProt P42336, I800L)
# T31 construct: purchased Eurofins DiscoverX (KINOMEscan)
# Procedure: as §1
# PRKG1 = molecular target: T32, PRKG1 (Homo sapiens, UniProt Q13976)
# T32 construct: purchased Eurofins DiscoverX (KINOMEscan)
# Procedure: as §1
# PRKR = molecular target: T33, PRKR (Homo sapiens, UniProt P19525)
# T33 construct: purchased Eurofins DiscoverX (KINOMEscan)
# Procedure: as §1
# RAF1 = molecular target: T34, RAF1 (Homo sapiens, UniProt P04049)
# T34 construct: purchased Eurofins DiscoverX (KINOMEscan)
# Procedure: as §1
# SLK = molecular target: T35, SLK (Homo sapiens, UniProt Q9H2G2)
# T35 construct: purchased Eurofins DiscoverX (KINOMEscan)
# Procedure: as §1
# SRMS = molecular target: T36, SRMS (Homo sapiens, UniProt Q9H3Y6)
# T36 construct: purchased Eurofins DiscoverX (KINOMEscan)
# Procedure: as §1
# SgK110 = molecular target: T37, SgK110 (Homo sapiens, UniProt P0C264)
# T37 construct: purchased Eurofins DiscoverX (KINOMEscan)
# Procedure: as §1
# TNNI3K = molecular target: T38, TNNI3K (Homo sapiens, UniProt Q59H18)
# T38 construct: purchased Eurofins DiscoverX (KINOMEscan)
# Procedure: as §1
# TSSK1B = molecular target: T39, TSSK1B (Homo sapiens, UniProt Q9BXA7)
# T39 construct: purchased Eurofins DiscoverX (KINOMEscan)
# Procedure: as §1
# WEE2 = molecular target: T40, WEE2 (Homo sapiens, UniProt P0C1S8)
# T40 construct: purchased Eurofins DiscoverX (KINOMEscan)
# Procedure: as §1
# WNK3 = molecular target: T41, WNK3 (Homo sapiens, UniProt Q9BYP7)
# T41 construct: purchased Eurofins DiscoverX (KINOMEscan)
# Procedure: as §1
# YES = molecular target: T42, YES (Homo sapiens, UniProt P07947)
# T42 construct: purchased EuroFins DiscoverX (Fremont, CA, USA)
# Procedure: as §1
# YSK4 = molecular target: T43, YSK4 (Homo sapiens, UniProt Q56UN5)
# T43 construct: purchased Eurofins DiscoverX (KINOMEscan)
# Procedure: as §1
# T27 sequence (Q5VT25 whole entry): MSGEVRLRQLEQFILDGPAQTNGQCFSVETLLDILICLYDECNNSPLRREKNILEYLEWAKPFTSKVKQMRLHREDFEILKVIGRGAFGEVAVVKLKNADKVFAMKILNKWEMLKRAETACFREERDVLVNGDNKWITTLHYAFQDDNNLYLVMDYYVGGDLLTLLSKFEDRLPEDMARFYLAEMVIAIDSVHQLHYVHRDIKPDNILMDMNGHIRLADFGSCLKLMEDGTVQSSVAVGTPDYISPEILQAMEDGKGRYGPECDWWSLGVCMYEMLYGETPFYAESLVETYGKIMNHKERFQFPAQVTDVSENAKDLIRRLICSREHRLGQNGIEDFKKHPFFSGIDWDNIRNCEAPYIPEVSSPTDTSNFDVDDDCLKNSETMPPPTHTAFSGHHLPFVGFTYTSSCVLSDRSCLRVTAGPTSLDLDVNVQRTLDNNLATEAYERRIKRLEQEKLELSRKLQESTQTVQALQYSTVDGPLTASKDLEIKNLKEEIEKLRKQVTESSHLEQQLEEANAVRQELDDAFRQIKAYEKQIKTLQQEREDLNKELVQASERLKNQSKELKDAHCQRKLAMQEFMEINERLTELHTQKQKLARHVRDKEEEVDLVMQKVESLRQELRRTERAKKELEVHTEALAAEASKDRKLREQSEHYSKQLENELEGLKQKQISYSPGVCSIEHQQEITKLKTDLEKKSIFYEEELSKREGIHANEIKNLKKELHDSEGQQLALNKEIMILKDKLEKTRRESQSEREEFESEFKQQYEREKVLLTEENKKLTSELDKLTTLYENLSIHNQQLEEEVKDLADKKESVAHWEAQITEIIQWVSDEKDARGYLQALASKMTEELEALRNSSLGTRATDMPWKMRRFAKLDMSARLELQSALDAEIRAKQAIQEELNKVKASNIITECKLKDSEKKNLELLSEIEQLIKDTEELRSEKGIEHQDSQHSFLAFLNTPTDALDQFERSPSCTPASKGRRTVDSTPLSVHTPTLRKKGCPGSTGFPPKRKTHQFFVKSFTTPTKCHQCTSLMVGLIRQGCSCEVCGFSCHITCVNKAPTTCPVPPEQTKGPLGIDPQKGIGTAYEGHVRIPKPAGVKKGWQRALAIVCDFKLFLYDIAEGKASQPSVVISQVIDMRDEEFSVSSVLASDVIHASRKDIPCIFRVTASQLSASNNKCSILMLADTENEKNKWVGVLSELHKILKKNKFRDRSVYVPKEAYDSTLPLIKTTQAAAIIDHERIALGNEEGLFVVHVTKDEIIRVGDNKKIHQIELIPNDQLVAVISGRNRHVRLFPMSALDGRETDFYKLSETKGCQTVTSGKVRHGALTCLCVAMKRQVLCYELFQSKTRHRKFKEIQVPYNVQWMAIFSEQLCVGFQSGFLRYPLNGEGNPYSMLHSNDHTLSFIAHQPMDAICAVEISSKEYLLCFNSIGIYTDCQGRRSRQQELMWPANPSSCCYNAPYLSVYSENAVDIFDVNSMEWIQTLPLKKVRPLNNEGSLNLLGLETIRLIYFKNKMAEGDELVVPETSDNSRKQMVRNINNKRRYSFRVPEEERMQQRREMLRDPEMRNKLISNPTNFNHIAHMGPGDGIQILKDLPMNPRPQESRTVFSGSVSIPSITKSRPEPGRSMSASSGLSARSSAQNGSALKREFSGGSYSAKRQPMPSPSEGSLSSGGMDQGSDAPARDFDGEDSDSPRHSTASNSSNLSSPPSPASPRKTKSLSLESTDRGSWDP
# T19 sequence (P45983 whole entry): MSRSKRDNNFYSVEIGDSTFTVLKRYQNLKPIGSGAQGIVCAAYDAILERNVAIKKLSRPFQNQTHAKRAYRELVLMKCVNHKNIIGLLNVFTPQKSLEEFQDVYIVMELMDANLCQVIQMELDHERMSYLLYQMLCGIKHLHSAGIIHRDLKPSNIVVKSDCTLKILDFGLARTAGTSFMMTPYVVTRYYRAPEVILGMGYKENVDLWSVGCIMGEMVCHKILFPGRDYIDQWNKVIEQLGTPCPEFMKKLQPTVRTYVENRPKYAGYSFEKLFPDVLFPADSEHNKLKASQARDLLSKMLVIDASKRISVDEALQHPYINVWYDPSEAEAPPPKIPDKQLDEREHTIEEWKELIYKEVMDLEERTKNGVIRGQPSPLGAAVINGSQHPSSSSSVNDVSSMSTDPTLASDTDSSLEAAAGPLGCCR
# T18 sequence (Q14164 whole entry): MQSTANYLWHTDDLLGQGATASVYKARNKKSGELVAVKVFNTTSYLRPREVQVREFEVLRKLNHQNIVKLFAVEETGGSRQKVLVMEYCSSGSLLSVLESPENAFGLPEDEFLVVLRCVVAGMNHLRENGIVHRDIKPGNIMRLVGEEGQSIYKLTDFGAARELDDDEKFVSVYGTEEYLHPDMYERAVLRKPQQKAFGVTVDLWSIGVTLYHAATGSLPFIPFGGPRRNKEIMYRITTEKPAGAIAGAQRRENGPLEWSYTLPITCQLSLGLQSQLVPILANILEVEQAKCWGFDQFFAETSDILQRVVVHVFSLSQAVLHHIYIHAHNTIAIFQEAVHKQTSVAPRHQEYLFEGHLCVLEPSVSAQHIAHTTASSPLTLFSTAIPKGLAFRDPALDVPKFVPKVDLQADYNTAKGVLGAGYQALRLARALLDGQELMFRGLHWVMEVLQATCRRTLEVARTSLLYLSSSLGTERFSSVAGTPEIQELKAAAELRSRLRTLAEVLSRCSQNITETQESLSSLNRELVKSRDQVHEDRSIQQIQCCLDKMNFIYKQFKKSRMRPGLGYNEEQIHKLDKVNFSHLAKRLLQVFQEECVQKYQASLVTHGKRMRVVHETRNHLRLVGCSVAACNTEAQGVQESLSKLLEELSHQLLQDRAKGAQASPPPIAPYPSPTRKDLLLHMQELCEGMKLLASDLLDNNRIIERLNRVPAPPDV
# T3 sequence (P31751 whole entry): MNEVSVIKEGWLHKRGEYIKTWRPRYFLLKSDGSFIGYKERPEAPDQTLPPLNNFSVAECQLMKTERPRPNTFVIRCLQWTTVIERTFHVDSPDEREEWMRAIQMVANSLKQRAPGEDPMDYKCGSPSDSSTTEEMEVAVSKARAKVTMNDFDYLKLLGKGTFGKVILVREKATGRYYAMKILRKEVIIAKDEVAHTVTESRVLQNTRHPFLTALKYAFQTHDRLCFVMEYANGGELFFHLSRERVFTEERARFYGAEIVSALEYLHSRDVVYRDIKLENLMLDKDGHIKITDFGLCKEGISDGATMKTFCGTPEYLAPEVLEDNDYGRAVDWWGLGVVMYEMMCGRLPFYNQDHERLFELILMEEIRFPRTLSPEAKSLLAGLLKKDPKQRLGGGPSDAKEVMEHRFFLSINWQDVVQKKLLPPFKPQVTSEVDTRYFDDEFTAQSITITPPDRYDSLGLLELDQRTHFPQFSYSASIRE
# T40 sequence (P0C1S8 whole entry): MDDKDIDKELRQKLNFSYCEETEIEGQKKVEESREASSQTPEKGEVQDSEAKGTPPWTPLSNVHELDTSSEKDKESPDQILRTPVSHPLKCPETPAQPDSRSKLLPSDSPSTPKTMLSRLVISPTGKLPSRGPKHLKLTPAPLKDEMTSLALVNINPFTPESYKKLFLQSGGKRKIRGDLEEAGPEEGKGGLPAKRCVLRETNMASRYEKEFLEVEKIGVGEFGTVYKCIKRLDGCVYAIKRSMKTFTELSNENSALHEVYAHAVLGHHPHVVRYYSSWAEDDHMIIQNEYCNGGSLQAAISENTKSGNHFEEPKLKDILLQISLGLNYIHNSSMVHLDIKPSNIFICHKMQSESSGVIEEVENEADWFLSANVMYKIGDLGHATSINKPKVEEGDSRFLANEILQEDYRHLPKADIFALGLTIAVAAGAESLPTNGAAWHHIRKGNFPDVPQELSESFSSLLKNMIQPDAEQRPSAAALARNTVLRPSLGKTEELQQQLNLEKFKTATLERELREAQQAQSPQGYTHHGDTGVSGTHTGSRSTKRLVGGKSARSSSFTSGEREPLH
# T37 sequence (P0C264 whole entry): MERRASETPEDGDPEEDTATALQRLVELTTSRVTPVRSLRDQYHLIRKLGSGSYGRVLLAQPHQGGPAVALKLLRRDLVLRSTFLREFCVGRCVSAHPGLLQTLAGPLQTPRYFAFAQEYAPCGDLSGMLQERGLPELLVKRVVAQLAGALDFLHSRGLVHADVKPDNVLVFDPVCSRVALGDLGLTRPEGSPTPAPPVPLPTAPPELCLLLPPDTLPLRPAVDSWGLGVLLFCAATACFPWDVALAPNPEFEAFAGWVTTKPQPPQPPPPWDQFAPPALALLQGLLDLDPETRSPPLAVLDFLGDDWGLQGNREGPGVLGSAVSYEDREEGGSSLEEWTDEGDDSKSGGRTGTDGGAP
# T24 sequence (Q7KZI7 whole entry): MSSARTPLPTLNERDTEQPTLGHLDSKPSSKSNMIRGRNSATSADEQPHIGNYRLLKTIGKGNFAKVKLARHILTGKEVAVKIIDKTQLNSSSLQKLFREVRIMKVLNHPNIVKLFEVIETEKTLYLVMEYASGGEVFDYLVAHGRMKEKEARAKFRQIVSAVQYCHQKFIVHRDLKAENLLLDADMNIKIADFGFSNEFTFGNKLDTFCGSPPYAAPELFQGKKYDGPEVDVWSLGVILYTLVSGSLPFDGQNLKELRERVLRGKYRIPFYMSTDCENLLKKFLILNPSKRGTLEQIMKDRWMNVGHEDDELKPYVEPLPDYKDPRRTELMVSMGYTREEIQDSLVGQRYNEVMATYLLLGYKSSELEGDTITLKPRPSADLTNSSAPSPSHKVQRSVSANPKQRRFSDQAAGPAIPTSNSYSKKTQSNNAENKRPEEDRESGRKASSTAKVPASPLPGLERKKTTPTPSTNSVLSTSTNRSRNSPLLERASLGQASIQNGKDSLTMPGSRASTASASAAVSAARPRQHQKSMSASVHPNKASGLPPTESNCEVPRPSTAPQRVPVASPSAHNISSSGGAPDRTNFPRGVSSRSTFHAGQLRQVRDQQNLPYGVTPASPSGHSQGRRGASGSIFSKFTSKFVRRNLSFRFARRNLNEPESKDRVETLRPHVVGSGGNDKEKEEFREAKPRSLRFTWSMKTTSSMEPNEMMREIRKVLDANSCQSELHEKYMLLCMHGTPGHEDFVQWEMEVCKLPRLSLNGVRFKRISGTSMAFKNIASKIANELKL
smiles,measurement,setting,value
"Brc1ccc2nccc(Nc3ccc4cn[nH]c4c3)c2c1 [Compound 35, 6-Bromo-N-(1H-indazol-6-yl)quinolin-4-amine]",activity at 1 µM,[1],100%
same,activity at 1 µM,[2],100%
same,activity at 1 µM,AKT2,100%
same,activity at 1 µM,BLK,96%
same,activity at 1 µM,CAMK2G,100%
same,activity at 1 µM,CDK11,80%
same,activity at 1 µM,CDK4-cyclinD3,100%
same,activity at 1 µM,CDK7,100%
same,activity at 1 µM,CDK8,83%
same,activity at 1 µM,CLK1,100%
same,activity at 1 µM,DMPK2,73%
same,activity at 1 µM,ERBB2,100%
same,activity at 1 µM,ERBB4,100%
same,activity at 1 µM,ERK3,100%
same,activity at 1 µM,FLT1,100%
same,activity at 1 µM,HUNK,100%
same,activity at 1 µM,IKK-beta,100%
same,activity at 1 µM,IKK-epsilon,95%
same,activity at 1 µM,JNK1,83%
same,activity at 1 µM,JNK2,100%
same,activity at 1 µM,KIT(D816V),100%
same,activity at 1 µM,LCK,100%
same,activity at 1 µM,MARK1,100%
same,activity at 1 µM,MARK2,100%
same,activity at 1 µM,MEK1,71%
same,activity at 1 µM,MEK2,50%
same,activity at 1 µM,MRCKA,100%
same,activity at 1 µM,MTOR,100%
same,activity at 1 µM,NEK10,100%
same,activity at 1 µM,PIK3CA(E545K),66%
same,activity at 1 µM,PIK3CA(I800L),76%
same,activity at 1 µM,PRKG1,100%
same,activity at 1 µM,PRKR,100%
same,activity at 1 µM,RAF1,100%
same,activity at 1 µM,SLK,100%
same,activity at 1 µM,SRMS,87%
same,activity at 1 µM,SgK110,100%
same,activity at 1 µM,TNNI3K,100%
same,activity at 1 µM,TSSK1B,100%
same,activity at 1 µM,WEE2,97%
same,activity at 1 µM,WNK3,92%
same,activity at 1 µM,YES,100%
same,activity at 1 µM,YSK4,98%
